Patent publication US20240043860A1, “NOVEL HYDROXYPHENYLPYRUVATE DIOXYGENASE POLYPEPTIDES AND METHODS OF USE THEREOF” (Syngenta Crop Protection AG, priority 2020, published 2024)

Columns and labels:
[1] = tested on: transgenic tobacco plants expressing mutant HPPD SEQ ID NO: 14; experiment: spray test, herbicidal damage scoring; type: in vivo
Protocol: Avena sativa HPPD or orthologues and variants thereof, for example SEQ IDs 1-63 and 122-127, were expressed in transgenic tobacco. DNA sequences that encode these polypeptides (optimized for tobacco or, optionally, codon optimized according to a target crop such as soybean) were prepared synthetically. Each sequence was designed to include a 5′ fusion with TMV omega 5′ leader sequence such that they are flanked at the 5′ end with XhoI and at the 3′ end with KpnI to facilitate direct cloning into a suitable binary vector for Agrobacterium-based plant transformation.
In one example, the TMV omega 5′ leader and a HPPD encoding gene of interest is excised using XhoI/KpnI and cloned into similarly digested binary vector pBIN 19 (Bevan, Nucl. Acids Res. (1984) behind a double enhanced 35S promoter ahead of a NOS 3′ transcription terminator and then transformed into E. coli DH5 alpha competent cells. DNA recovered from the E. coli is used to transform Agrobacterium tumefaciens LBA4404, and transformed bacteria are selected on media contain rifampicin and kanamycin. Tobacco tissue is subjected to Agrobacterium-mediated transformation using methods well described in the art or as described herein. For example, a master plate of Agrobacterium tumefaciens containing the HPPD expressing the binary vector is used to inoculate 10 ml LB (L broth) containing 100 mg/l Rifampicin plus 50 mg/l Kanamycin using a single bacterial colony. This is incubated overnight at 28° C. shaking at 200 rpm. This entire overnight culture is used to inoculate a 50 ml volume of LB containing the same antibiotics. Again this is cultured overnight at 28° C. shaking at 200 rpm. The Agrobacterium cells are pelleted by centrifuging at 3000 rpm for 15 minutes and then resuspended in MS (Murashige and Skoog) medium containing 30 g/l sucrose, pH 5.9 to an OD […]=0.6. This suspension is dispensed in 25 ml aliquots into petri dishes.
Once rooted, plantlets are transferred from agar and potted into 50% peat, 50% John Innes Soil No. 3 or, for example, MetroMix® 380 soil (Sun Gro Horticulture, Bellevue, WA) with slow-release fertilizer in 3 inch round or 4 inch square pots and left regularly watered to establish for 8-12d in the glass house. Glass house conditions are about 24-27° C. day; 18-21° C. night and approximately a 14h (or longer in UK summer) photoperiod. Humidity is adjusted to ˜65% and light levels used are up to 2000 umol/m^2 at bench level. Once new tissue emerged and plants reach the 2-4 leaf stage, some of the clones from each event are sprayed with an HPPD inhibitor of interest selected from the herbicides listed in reference to Example 1. […] For example Callisto® is mixed in water with 0.2-0.25% X-77 surfactant and sprayed from a boom on a suitable track sprayer moving at 2 mph in a DeVries spray chamber (Hollandale, MN) with the nozzle about 2 inches from the plant tops.
Plants are assessed for damage and scored at, for example, 7 and 14 days after treatment (DAT). About 20-30 TO events are produced for a number of HPPD variant genes.
Plants of events showing the least damage are grown to flowering, then bagged and allowed to self. […] Single copy events amongst the Ti plant lines are identified by their 3:1 segregation ratio (with respect to kanamycin and/or herbicide) and by quantitative RT-PCR. Seed from the thus selected Ti tobacco (var. Samsun) lines are sown in 3 inch diameter pots containing 50% peat and 50% John Innes Soil No. 3. After growth to the 3 leaf stage, plants are sprayed as described above in order to test for herbicide tolerance relative to like-treated non-transgenic tobacco plants, and also in comparison with like-treated Ti plants expressing the base HPPD SEQ IDs 122-125. HPPD expression levels were monitored by Western analysis. […]

[2] = tested on: HPPD variant AVESA V208 (SEQ ID NO: 14); experiment: biochemical; type: biochemical, Avena sativa; conditions: SEQ ID NO: 14 compared to control SEQ ID NO: 122
Protocol: (§1) 25 ul of the overnight cultures were inoculated into fresh 96-deepwell block containing 1 ml Formedium Autoinduction Media (AIM). The AIM cultures were grown for 3h at 37° C. (900rpm) and then transferred to 20° C. overnight (900rpm) to allow protein expression. The overnight cultures were centrifuged and 500 ul of Cellytic B (Sigma Aldrich) was added to resuspend the cell pellets. The coupled HGO assay (Siehl et al, 2014) is used to generate IC50 values for the HPPD variants of interest.
(§2) E. coli BL21 (DE3) cells were transformed with a pET24a vector containing a C-terminally his-tagged Arabidopsis HGO gene, grown and induced overnight as described for the HPPD variants above. The cell pellet was resuspended in phosphate buffered saline at pH 7.4 containing 10% Glycerol, 1mm Tris[2-carboxyethyl] phosphine-HCl (TCEP) plus 30 mM Imidazole and lysed using lysozyme/benzonase. The extract was clarified by low speed centrifugation and purified in the same buffer down a 1 ml His Gravitrap column. The bound HGO was eluted in 0.25M imidazole and the fractions pooled and beaded into liquid nitrogen. All procedures apart from the centrifugation and beading steps were carried out under a nitrogen atmosphere.
(§3) The coupled HGO assay is carried out by adding 10 ul of HPPD extract to a 96-well plate and then adding 40 ul of reaction buffer (50 mM Bis Tris Propane, pH7.0, 25 mM sodium-L-ascorbate, 400μM mercaptoethanol, 50 μM Fe(II)SO4). The plates are left to incubate for 5 minutes on ice. […] 200 ul of HPP/HGO (197 μM hydroxyphenylpyruvic acid, 16 μl/ml Homogentisic Acid Oxidase in reaction buffer as described above) buffer is then added to the well and the reaction is regularly monitored (e.g. every 30 seconds-5 minutes) for absorbance at 330 nm for a given time period (e.g., for between 15-60 minutes). The data can then be used to calculate the IC50 value for each HPPD variant of interest.

[3] = target: HPPD variant AVESA V200 (SEQ ID NO: 5) (Avena sativa, UniProt A0ACD5V6K6, A327R/I340E/L359M/V218I/V260A); experiment: biochemical
HPPD variant AVESA V200 (SEQ ID NO: 5), sequence (A0ACD5V6K6 entry or part of it V218I/V260A/A327R/I340E/L359M): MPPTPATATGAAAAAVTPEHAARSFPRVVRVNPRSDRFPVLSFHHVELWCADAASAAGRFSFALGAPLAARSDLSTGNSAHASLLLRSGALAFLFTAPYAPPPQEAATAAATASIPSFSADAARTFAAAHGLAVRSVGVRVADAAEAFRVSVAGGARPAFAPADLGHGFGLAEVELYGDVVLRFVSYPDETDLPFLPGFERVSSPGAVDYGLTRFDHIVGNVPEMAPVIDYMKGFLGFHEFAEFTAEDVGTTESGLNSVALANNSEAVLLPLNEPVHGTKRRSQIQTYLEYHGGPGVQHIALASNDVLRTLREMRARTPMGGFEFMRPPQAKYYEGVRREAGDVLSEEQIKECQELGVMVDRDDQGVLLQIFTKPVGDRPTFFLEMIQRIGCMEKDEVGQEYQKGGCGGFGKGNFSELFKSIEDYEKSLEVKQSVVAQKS
Protocol: as §1
E. coli BL21 (DE3) cells were transformed with a pET24a vector containing a C-terminally his-tagged Arabidopsis HGO gene, grown and induced overnight as described for the HPPD variants above. […]
as §3, with “Fe(II)SO4).” for “Fe(II)SO4). The plates are left to incubate for 5 minutes on ice.”, “The data can then be used to calculate the IC50 value for each HPPD variant of interest.” left out

[4] = target: HPPD variant AVESA V209 (SEQ ID NO: 17) (Avena sativa, UniProt A0ACD5V6K6, A327R/I340E/L359M/R214G/V218I/V260A); experiment: biochemical; type: biochemical
HPPD variant AVESA V209 (SEQ ID NO: 17) (Avena sativa, UniProt A0ACD5V6K6, A327R/I340E/L359M/R214G/V218I/V260A), sequence (A0ACD5V6K6 entry or part of it R214G/V218I/V260A/A327R/I340E/L359M): as the sequence (A0ACD5V6K6 entry or part of it V218I/V260A/A327R/I340E/L359M) above, with R214G counted along it
Protocol: as §1, §2, §3

[5] = tested on: HPPD variant AVESA V209 (SEQ ID NO: 17); experiment: biochemical; type: biochemical, Avena sativa; conditions: SEQ ID NO: 17 compared to control SEQ ID NO: 122
Protocol: as §1, §2, §3

| SMILES | damage ([1]; 200 g/ha, SEQ ID 14 plants compared to plants expressing SEQ IDs 122, 124 or 125) | stunting ([1]; FIG. 4, 300 ai/ha, SEQ ID NO: 14 plants compared to plants expressing the wild-type HPPD (SEQ ID NO: 1)) | chlorosis ([1]; FIG. 4, 300 ai/ha, some multi-copy events expressing SEQ ID NO: 14) | chlorosis (yellowing of leaf tissue) ([1]; FIG. 5, 50 g/ha, SEQ ID NO: 14 plants compared to plants expressing SEQ ID NO: 122 or SEQ ID NO: 17) | tolerance in comparison to SEQ ID NO: 122 ([1]; many lines expressing SEQ ID NO: 14, 100 g/ha (Table 3.1)) | damage ([1]; several lines expressing SEQ ID NO: 14, 100 g/ha (Table 3.1)) | increase of the IC50 value [2] [fold] | IC50 [3] [µM] | IC50 [4] [µM] | increase of the IC50 value [5] [fold] |
| --- | --- | --- | --- | --- | --- | --- | --- | --- | --- | --- |
| COc1ccc(-n2nc(C)cc(C(=O)C3C(=O)CCCC3=O)c2=O)cc1OC [Herbicide C, dioxopyritrione] | reduced damage | significantly reduced stunting | Almost no chlorosis | significantly reduced chlorosis | significantly improved tolerance | less than 10% | > 200 | – | – | – |
| Cn1nnnc1NC(=O)c1ccc(C(F)(F)F)nc1-n1cncn1 [Herbicide D, N-(1-methyltetrazol-5-yl)-2-(1,2,4-triazol-1-yl)-6-(trifluoromethyl)pyridine-3-carboxamide] | – | – | – | – | – | – | – | 63.2 | 106 | ~14 |
